“And” between values parts separate entries of the source, which are not always exact repeats. Identical values can stand only once. Inconclusive results and toxic doses are left out. Rule as the data show it: active = T/C of 150% or more; inactive = T/C below 125%.
Test system: L1210 leukemia ip in BDF1 mice, survival T/C
Experiment: NCI In Vivo Anticancer Drug Screen. Data for tumor model L1210 Leukemia (intraperitoneal) in B6D2F1 (BDF1) mice
Details: endpoint: mean survival time, higher = longer survival
Summary of the method: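 Each compound was tested against a transplantable tumor grown in mice. The endpoint was survival, with treated animals benchmarked against vehicle controls as a simple ratio.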

[1] = dose: 75.0 mg/kg/injection, schedule: Q01DX001 (ip), vehicle: saline
[2] = dose: 150.0 mg/kg/injection, schedule: Q01DX001 (ip), vehicle: saline
[3] = dose: 100.0 mg/kg/injection, schedule: Q01DX009 (ip), vehicle: Klucel (hydroxypropylcellulose) (HPC)
[4] = dose: 100.0 mg/kg/injection, schedule: Q04DX002 (ip), vehicle: saline
[5] = dose: 200.0 mg/kg/injection, schedule: Q04DX002 (ip), vehicle: saline

Measured: T/C

C[N+]1(C2CCC3CCCC2C3=O)CCCC1 (stereo not drawn)
inactive: [1] 98 % of control | [2] 106 % of control

NC(CSS(=O)(=O)O)=NCCCc1ccccc1
inactive: dose: 12.5 mg/kg/injection, schedule: Q04DX002 (ip), vehicle: Klucel (hydroxypropylcellulose) (HPC) 97 % of control | dose: 25.0 mg/kg/injection, schedule: Q04DX002 (ip), vehicle: Klucel (hydroxypropylcellulose) (HPC) 108 % of control

CCOC(=O)NC1Cc2cc(C)cc(C)c21 (stereo not drawn)
inactive: dose: 10.0 mg/kg/injection, schedule: Q04DX002 (ip), vehicle: Klucel (hydroxypropylcellulose) (HPC) 120 % of control | dose: 20.0 mg/kg/injection, schedule: Q04DX002 (ip), vehicle: Klucel (hydroxypropylcellulose) (HPC) 100 % of control | dose: 40.0 mg/kg/injection, schedule: Q04DX002 (ip), vehicle: Klucel (hydroxypropylcellulose) (HPC) 103 % of control

NC(N)=N/N=C/C(F)(F)F
inactive: dose: 15.0 mg/kg/injection, schedule: Q01DX Z (ip), vehicle: methylcellulose (MC) 105 % of control | dose: 30.0 mg/kg/injection, schedule: Q01DX Z (ip), vehicle: methylcellulose (MC) 102 % of control | dose: 60.0 mg/kg/injection, schedule: Q01DX Z (ip), vehicle: methylcellulose (MC) 112 % of control | dose: 60.0 mg/kg/injection, schedule: Q01DX Z (oral), vehicle: methylcellulose (MC) 92 % of control | dose: 120.0 mg/kg/injection, schedule: Q01DX Z (ip), vehicle: methylcellulose (MC) 97 % of control | dose: 120.0 mg/kg/injection, schedule: Q01DX Z (oral), vehicle: methylcellulose (MC) 93 % of control | dose: 240.0 mg/kg/injection, schedule: Q01DX Z (ip), vehicle: methylcellulose (MC) 88 % of control | dose: 240.0 mg/kg/injection, schedule: Q01DX Z (oral), vehicle: methylcellulose (MC) 102 % of control | dose: 420.0 mg/kg/injection, schedule: Q01DX Z (ip), vehicle: methylcellulose (MC) 88 % of control | dose: 480.0 mg/kg/injection, schedule: Q01DX Z (oral), vehicle: methylcellulose (MC) 95 % of control

Cc1cc(=O)oc2cc(OC(=O)Nc3ccccc3)ccc12
inactive: dose: 100.0 mg/kg/injection, schedule: Q01DX001 (ip), vehicle: Klucel (hydroxypropylcellulose) (HPC) 93 % of control | [3] 94 % of control and 105 % of control | dose: 100.0 mg/kg/injection, schedule: Q04DX002 (ip), vehicle: Klucel (hydroxypropylcellulose) (HPC) 108 % of control and 118 % of control | dose: 100.0 mg/kg/injection, schedule: Q04DX003 (ip), vehicle: Klucel (hydroxypropylcellulose) (HPC) 105 % of control | dose: 200.0 mg/kg/injection, schedule: Q01DX001 (ip), vehicle: Klucel (hydroxypropylcellulose) (HPC) 104 % of control | dose: 200.0 mg/kg/injection, schedule: Q01DX009 (ip), vehicle: Klucel (hydroxypropylcellulose) (HPC) 98 % of control | dose: 200.0 mg/kg/injection, schedule: Q04DX002 (ip), vehicle: Klucel (hydroxypropylcellulose) (HPC) 112 % of control and 92 % of control | dose: 200.0 mg/kg/injection, schedule: Q04DX003 (ip), vehicle: Klucel (hydroxypropylcellulose) (HPC) 100 % of control | dose: 400.0 mg/kg/injection, schedule: Q01DX001 (ip), vehicle: Klucel (hydroxypropylcellulose) (HPC) 108 % of control | dose: 400.0 mg/kg/injection, schedule: Q04DX003 (ip), vehicle: Klucel (hydroxypropylcellulose) (HPC) 92 % of control

O=C(O)c1ccc(C(=O)O)nn1
inactive: [4] 96 % of control | [5] 90 % of control

CC(=O)OCC1OC(Oc2ccccc2)C(OC(C)=O)C(OC(C)=O)C1OC(C)=O (stereo not drawn)
inactive: dose: 100.0 mg/kg/injection, schedule: Q01DX001 (ip), vehicle: saline with Tween-80 101 % of control | dose: 100.0 mg/kg/injection, schedule: Q01DX009 (ip), vehicle: saline with Tween-80 101 % of control | dose: 200.0 mg/kg/injection, schedule: Q01DX001 (ip), vehicle: saline with Tween-80 96 % of control | dose: 200.0 mg/kg/injection, schedule: Q01DX009 (ip), vehicle: saline with Tween-80 95 % of control | dose: 400.0 mg/kg/injection, schedule: Q01DX001 (ip), vehicle: saline with Tween-80 101 % of control | dose: 400.0 mg/kg/injection, schedule: Q01DX009 (ip), vehicle: saline with Tween-80 96 % of control

Nc1c(Br)cc(Br)c2[nH]c(=O)c3ccccc3c12
inactive: dose: 100.0 mg/kg/injection, schedule: Q01DX001 (ip), vehicle: carboxymethylcellulose (CMC) 104 % of control | dose: 200.0 mg/kg/injection, schedule: Q01DX001 (ip), vehicle: carboxymethylcellulose (CMC) 96 % of control | dose: 400.0 mg/kg/injection, schedule: Q01DX001 (ip), vehicle: carboxymethylcellulose (CMC) 98 % of control

CC(C)(C)CC(C)(C)N
inactive: dose: 12.5 mg/kg/injection, schedule: Q01DX001 (ip), vehicle: Klucel (hydroxypropylcellulose) (HPC) 100 % of control | dose: 25.0 mg/kg/injection, schedule: Q01DX001 (ip), vehicle: Klucel (hydroxypropylcellulose) (HPC) 92 % of control | dose: 50.0 mg/kg/injection, schedule: Q01DX001 (ip), vehicle: Klucel (hydroxypropylcellulose) (HPC) 92 % of control

COc1ccc(OC)c(NC(=O)Nc2cc(C(F)(F)F)ccc2Cl)c1
inactive: [3] 104 % of control | dose: 400.0 mg/kg/injection, schedule: Q01DX009 (ip), vehicle: Klucel (hydroxypropylcellulose) (HPC) 91 % of control

COC(=O)N1C2C=CC(=O)C(C=C2)N1C(=O)OC (stereo not drawn)
inactive: [1] 106 % of control | [2] 106 % of control | dose: 300.0 mg/kg/injection, schedule: Q01DX001 (ip), vehicle: saline 109 % of control

O=C(O)CCCN1C/C(=C\c2ccccc2)C(=O)C1=O
inactive: dose: 100.0 mg/kg/injection, schedule: Q04DX003 (ip), vehicle: saline 104 % of control | dose: 200.0 mg/kg/injection, schedule: Q04DX003 (ip), vehicle: saline 101 % of control | dose: 400.0 mg/kg/injection, schedule: Q04DX003 (ip), vehicle: saline 98 % of control

c1ccc(C[Se]Cc2ccccc2)cc1
inactive: dose: 100.0 mg/kg/injection, schedule: Q04DX003 (ip), vehicle: other 92 % of control

CCCCCCOC(=O)CCCc1ccc(N(CCCl)CCCl)cc1
inactive: [4] 114 % of control | [5] 111 % of control | dose: 400.0 mg/kg/injection, schedule: Q04DX002 (ip), vehicle: saline 124 % of control

C=C(C)C(=O)CC(=O)C1CCc2cc(OC)ccc2C1=O (stereo not drawn)
inactive: dose: 100.0 mg/kg/injection, schedule: Q01DX009 (ip), vehicle: saline sonified 102 % of control | dose: 200.0 mg/kg/injection, schedule: Q01DX009 (ip), vehicle: saline sonified 96 % of control | dose: 400.0 mg/kg/injection, schedule: Q01DX009 (ip), vehicle: saline sonified 100 % of control

CN(C)CCC(=O)c1ccc(Cl)cc1
inactive: dose: 50.0 mg/kg/injection, schedule: Q01DX001 (ip), vehicle: saline 101 % of control | dose: 50.0 mg/kg/injection, schedule: Q01DX009 (ip), vehicle: saline 95 % of control and 117 % of control | dose: 100.0 mg/kg/injection, schedule: Q01DX001 (ip), vehicle: saline 101 % of control | dose: 100.0 mg/kg/injection, schedule: Q01DX009 (ip), vehicle: saline 99 % of control and 103 % of control | [4] 95 % of control and 103 % of control | dose: 200.0 mg/kg/injection, schedule: Q01DX001 (ip), vehicle: saline 101 % of control | [5] 93 % of control and 90 % of control
